IC50 data for eight molecules are collected here from US20120121591A1 (priority 2009, published 2012).

Common to all, as to assay type: cell-based
Test [1] concerns IL-2 secretion from T cells in human whole blood. To be noted: read-out: WB (IL-2) IC50 (nM, Avg).
The subject of test [2] is IFN-g secretion from T cells in human whole blood. Conditions: read-out: WB (IFNg) IC50 (nM, Avg).
For test [3], the target named is hKv1.3 (Homo sapiens, UniProt P22001). The test is described as follows: cell-based. Conditions: Kv1.3 (IWQ) IC50 (nM, Avg).
Chain of hKv1.3 (P22001 whole entry): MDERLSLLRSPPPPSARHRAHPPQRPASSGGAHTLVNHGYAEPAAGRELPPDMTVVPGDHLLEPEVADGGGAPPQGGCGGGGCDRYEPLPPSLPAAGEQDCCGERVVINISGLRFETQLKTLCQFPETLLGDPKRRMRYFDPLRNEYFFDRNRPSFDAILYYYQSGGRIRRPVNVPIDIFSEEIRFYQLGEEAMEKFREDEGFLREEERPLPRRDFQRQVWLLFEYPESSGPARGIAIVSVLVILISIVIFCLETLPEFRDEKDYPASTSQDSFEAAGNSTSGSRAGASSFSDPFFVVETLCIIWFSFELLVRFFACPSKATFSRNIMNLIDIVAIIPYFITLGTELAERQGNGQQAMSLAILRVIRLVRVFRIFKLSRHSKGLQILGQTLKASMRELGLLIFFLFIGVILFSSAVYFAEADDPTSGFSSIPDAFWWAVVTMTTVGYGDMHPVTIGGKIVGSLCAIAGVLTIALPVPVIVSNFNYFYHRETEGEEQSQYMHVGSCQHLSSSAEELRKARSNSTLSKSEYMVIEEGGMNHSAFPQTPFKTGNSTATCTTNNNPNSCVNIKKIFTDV

Regarding `CCCC[C@@H]1NC(=O)[C@H](CO)NC(=O)[C@H](Cc2c[nH]cn2)NC(=O)[C@H](CCCCN)NC(=O)[C@@H]2CSSC[C@@H]3NC(=O)[C@H]([C@@H](C)O)NC(=O)[C@H](CCCCN)NC(=O)[C@H](CCCNC(=N)N)NC(=O)[C@H](CSSC[C@H](NC(=O)[C@H](CCCNC(=N)N)NC(=O)[C@H](CO)NC(=O)[C@H](CCCCN)NC(=O)[C@@H]4CCCN4C(=O)[C@H]([C@@H](C)CC)NC(=O)[C@H]([C@@H](C)O)NC(=O)[C@H](CC(=O)O)NC(=O)[C@H]([C@@H](C)CC)NC(=O)[C@@H](NC(=O)[C@H](CO)NC(=O)[C@@H](N)CCCNC(=N)N)CSSC[C@@H](C(=O)N[C@@H](C)C(=O)O)NC(=O)[C@H]([C@@H](C)O)NC(=O)CNC3=O)C(=O)N[C@@H]([C@@H](C)O)C(=O)N[C@@H](C)C(=O)N[C@@H](Cc3ccccc3)C(=O)N[C@@H](CCCCN)C(=O)N2)NC(=O)[C@H](Cc2ccccc2)NC(=O)[C@H](CO)NC(=O)[C@H](CC(C)C)NC(=O)[C@H](CCCNC(=N)N)NC(=O)[C@H](Cc2ccc(O)cc2)NC(=O)[C@H](CCCCN)NC1=O` [[Lys16,N1e21]ShK-Ala], the IC50 in test [1] stood at 0.305 nM; in test [2], 0.515 nM; in test [3], 33.3 nM.
On the same counts, the results for `CCCC[C@@H]1NC(=O)[C@H](CO)NC(=O)[C@H](Cc2c[nH]cn2)NC(=O)[C@H](CCCCN)NC(=O)[C@@H]2CSSC[C@@H]3NC(=O)[C@H]([C@@H](C)O)NC(=O)[C@H](CCCCN)NC(=O)[C@H](CCCNC(=N)N)NC(=O)[C@H](CSSC[C@H](NC(=O)[C@H](CCCNC(=N)N)NC(=O)[C@H](CO)NC(=O)[C@H](CCCCN)NC(=O)[C@@H]4CCCN4C(=O)[C@H]([C@@H](C)CC)NC(=O)[C@H]([C@@H](C)O)NC(=O)[C@H](CC(=O)O)NC(=O)[C@H]([C@@H](C)CC)NC(=O)[C@@H](NC(=O)[C@H](CO)NC(=O)[C@@H](N)CCCNC(=N)N)CSSC[C@@H](C(=O)N[C@@H](CCC(=O)O)C(=O)O)NC(=O)[C@H]([C@@H](C)O)NC(=O)CNC3=O)C(=O)N[C@@H]([C@@H](C)O)C(=O)N[C@@H](C)C(=O)N[C@@H](Cc3ccccc3)C(=O)N[C@@H](CCCCN)C(=O)N2)NC(=O)[C@H](Cc2ccccc2)NC(=O)[C@H](CO)NC(=O)[C@H](CC(C)C)NC(=O)[C@H](CCCNC(=N)N)NC(=O)[C@H](Cc2ccc(O)cc2)NC(=O)[C@H](CCCCN)NC1=O` [[Lys16,N1e21]ShK-Glu] are 0.386 nM, 0.621 nM and 22.5 nM.
The matching figures for `CCCC[C@@H]1NC(=O)[C@H](CO)NC(=O)[C@H](Cc2c[nH]cn2)NC(=O)[C@H](CCCCN)NC(=O)[C@@H]2CSSC[C@@H]3NC(=O)[C@H]([C@@H](C)O)NC(=O)[C@H](CCCCN)NC(=O)[C@H](CCCNC(=N)N)NC(=O)[C@H](CSSC[C@H](NC(=O)[C@H](CCCNC(=N)N)NC(=O)[C@H](CO)NC(=O)[C@H](CCCCN)NC(=O)[C@@H]4CCCN4C(=O)[C@H]([C@@H](C)CC)NC(=O)[C@H]([C@@H](C)O)NC(=O)[C@H](CC(=O)O)NC(=O)[C@H]([C@@H](C)CC)NC(=O)[C@@H](NC(=O)[C@H](CO)NC(=O)[C@@H](N)CCCNC(=N)N)CSSC[C@@H](C(=O)N[C@@H](Cc4ccc(O)cc4)C(=O)O)NC(=O)[C@H]([C@@H](C)O)NC(=O)CNC3=O)C(=O)N[C@@H]([C@@H](C)O)C(=O)N[C@@H](C)C(=O)N[C@@H](Cc3ccccc3)C(=O)N[C@@H](CCCCN)C(=O)N2)NC(=O)[C@H](Cc2ccccc2)NC(=O)[C@H](CO)NC(=O)[C@H](CC(C)C)NC(=O)[C@H](CCCNC(=N)N)NC(=O)[C@H](Cc2ccc(O)cc2)NC(=O)[C@H](CCCCN)NC1=O` [[Lys16,N1e21]ShK-Tyr]: 0.418 nM, 0.485 nM and 109 nM.
The matching figures for `CCCC[C@@H]1NC(=O)[C@H](CO)NC(=O)[C@H](Cc2c[nH]cn2)NC(=O)[C@H](CCCCN)NC(=O)[C@@H]2CSSC[C@@H]3NC(=O)[C@H]([C@@H](C)O)NC(=O)[C@H](CCCCN)NC(=O)[C@H](CCCNC(=N)N)NC(=O)[C@H](CSSC[C@H](NC(=O)[C@H](CCCNC(=N)N)NC(=O)[C@H](CO)NC(=O)[C@H](CCCCN)NC(=O)[C@@H]4CCCN4C(=O)[C@H]([C@@H](C)CC)NC(=O)[C@H]([C@@H](C)O)NC(=O)[C@H](CC(=O)O)NC(=O)[C@H]([C@@H](C)CC)NC(=O)[C@@H](NC(=O)[C@H](CO)NC(=O)[C@@H](N)CCCNC(=N)N)CSSC[C@@H](C(=O)O)NC(=O)[C@H]([C@@H](C)O)NC(=O)CNC3=O)C(=O)N[C@@H]([C@@H](C)O)C(=O)N[C@@H](C)C(=O)N[C@@H](Cc3ccccc3)C(=O)N[C@@H](CCCCN)C(=O)N2)NC(=O)[C@H](Cc2ccccc2)NC(=O)[C@H](CO)NC(=O)[C@H](CC(C)C)NC(=O)[C@H](CCCNC(=N)N)NC(=O)[C@H](Cc2ccc(O)cc2)NC(=O)[C@H](CCCCN)NC1=O` [[Lys16,N1e21]ShK]: 0.249 nM, 0.848 nM and 0.13 nM.
Consider `CCC[C@@H]1NC(=O)[C@H](CO)NC(=O)[C@H](Cc2c[nH]cn2)NC(=O)[C@H](CCCCN)NC(=O)[C@@H]2CSSC[C@@H]3NC(=O)[C@H]([C@@H](C)O)NC(=O)[C@H](CCCCN)NC(=O)[C@H](CCCNC(=N)N)NC(=O)[C@H](CSSC[C@H](NC(=O)[C@H](CCCNC(=N)N)NC(=O)[C@H](CO)NC(=O)[C@H](CCCCN)NC(=O)[C@@H]4CCCN4C(=O)[C@H]([C@@H](C)CC)NC(=O)[C@H]([C@@H](C)O)NC(=O)[C@H](CC(=O)O)NC(=O)[C@H]([C@@H](C)CC)NC(=O)[C@@H](NC(=O)[C@H](CO)NC(=O)[C@@H](N)CCCNC(=N)N)CSSC[C@@H](C(=O)NC(C)(C)C(N)=O)NC(=O)[C@H]([C@@H](C)O)NC(=O)CNC3=O)C(=O)N[C@@H]([C@@H](C)O)C(=O)N[C@@H](C)C(=O)N[C@@H](Cc3ccccc3)C(=O)N[C@@H](CCCCN)C(=O)N2)NC(=O)[C@H](Cc2ccccc2)NC(=O)[C@H](CO)NC(=O)[C@H](CC(C)C)NC(=O)[C@H](CCCNC(=N)N)NC(=O)[C@H](Cc2ccc(O)cc2)NC(=O)[C@H](CCCCN)NC1=O` [[Lys16,Nva21]ShK-Aib-amide], for which the IC50 worked out at 0.483 nM in test [1], 0.722 nM in test [2] and 0.03 nM in test [3].
The matching figures for `CCC[C@@H]1NC(=O)[C@H](CO)NC(=O)[C@H](Cc2c[nH]cn2)NC(=O)[C@H](CCCCN)NC(=O)[C@@H]2CSSC[C@@H]3NC(=O)[C@H]([C@@H](C)O)NC(=O)[C@H](CCCCN)NC(=O)[C@H](CCCNC(=N)N)NC(=O)[C@H](CSSC[C@H](NC(=O)[C@H](CCCNC(=N)N)NC(=O)[C@H](CO)NC(=O)[C@H](CCCCN)NC(=O)[C@@H]4CCCN4C(=O)[C@H]([C@@H](C)CC)NC(=O)[C@H]([C@@H](C)O)NC(=O)[C@H](CC(=O)O)NC(=O)[C@H]([C@@H](C)CC)NC(=O)[C@@H](NC(=O)[C@H](CO)NC(=O)[C@@H](N)CCCNC(=N)N)CSSC[C@@H](C(=O)N[C@@H](C)C(N)=O)NC(=O)[C@H]([C@@H](C)O)NC(=O)CNC3=O)C(=O)N[C@@H]([C@@H](C)O)C(=O)N[C@@H](C)C(=O)N[C@@H](Cc3ccccc3)C(=O)N[C@@H](CCCCN)C(=O)N2)NC(=O)[C@H](Cc2ccccc2)NC(=O)[C@H](CO)NC(=O)[C@H](CC(C)C)NC(=O)[C@H](CCCNC(=N)N)NC(=O)[C@H](Cc2ccc(O)cc2)NC(=O)[C@H](CCCCN)NC1=O` [[Lys16,Nva21]ShK-Ala-amide]: 0.431 nM, 1.46 nM and 0.08 nM.
The matching figures for `CCC[C@@H]1NC(=O)[C@H](CO)NC(=O)[C@H](Cc2c[nH]cn2)NC(=O)[C@H](CCCCN)NC(=O)[C@@H]2CSSC[C@@H]3NC(=O)[C@H]([C@@H](C)O)NC(=O)[C@H](CCCCN)NC(=O)[C@H](CCCNC(=N)N)NC(=O)[C@H](CSSC[C@H](NC(=O)[C@H](CCCNC(=N)N)NC(=O)[C@H](CO)NC(=O)[C@H](CCCCN)NC(=O)[C@@H]4CCCN4C(=O)[C@H]([C@@H](C)CC)NC(=O)[C@H]([C@@H](C)O)NC(=O)[C@H](CC(=O)O)NC(=O)[C@H]([C@@H](C)CC)NC(=O)[C@@H](NC(=O)[C@H](CO)NC(=O)[C@@H](N)CCCNC(=N)N)CSSC[C@@H](C(=O)N[C@@H](C)C(=O)O)NC(=O)[C@H]([C@@H](C)O)NC(=O)CNC3=O)C(=O)N[C@@H]([C@@H](C)O)C(=O)N[C@@H](C)C(=O)N[C@@H](Cc3ccccc3)C(=O)N[C@@H](CCCCN)C(=O)N2)NC(=O)[C@H](Cc2ccccc2)NC(=O)[C@H](CO)NC(=O)[C@H](CC(C)C)NC(=O)[C@H](CCCNC(=N)N)NC(=O)[C@H](Cc2ccc(O)cc2)NC(=O)[C@H](CCCCN)NC1=O` [[Lys16,Nva21]ShK-Ala]: 0.164 nM, 0.307 nM and 13.5 nM.
Regarding `CCC[C@@H]1NC(=O)[C@H](CO)NC(=O)[C@H](Cc2c[nH]cn2)NC(=O)[C@H](CCCCN)NC(=O)[C@@H]2CSSC[C@@H]3NC(=O)[C@H]([C@@H](C)O)NC(=O)[C@H](CCCCN)NC(=O)[C@H](CCCNC(=N)N)NC(=O)[C@H](CSSC[C@H](NC(=O)[C@H](CCCNC(=N)N)NC(=O)[C@H](CO)NC(=O)[C@H](CCCCN)NC(=O)[C@@H]4CCCN4C(=O)[C@H]([C@@H](C)CC)NC(=O)[C@H]([C@@H](C)O)NC(=O)[C@H](CC(=O)O)NC(=O)[C@H]([C@@H](C)CC)NC(=O)[C@@H](NC(=O)[C@H](CO)NC(=O)[C@@H](N)CCCNC(=N)N)CSSC[C@@H](C(=O)N[C@@H](CC(=O)O)C(N)=O)NC(=O)[C@H]([C@@H](C)O)NC(=O)CNC3=O)C(=O)N[C@@H]([C@@H](C)O)C(=O)N[C@@H](C)C(=O)N[C@@H](Cc3ccccc3)C(=O)N[C@@H](CCCCN)C(=O)N2)NC(=O)[C@H](Cc2ccccc2)NC(=O)[C@H](CO)NC(=O)[C@H](CC(C)C)NC(=O)[C@H](CCCNC(=N)N)NC(=O)[C@H](Cc2ccc(O)cc2)NC(=O)[C@H](CCCCN)NC1=O` [[Lys16,Nva21]ShK-Asp-amide], the IC50 in test [1] was found to be 0.255 nM; in test [2] it was 0.349 nM; in test [3] it was 0.28 nM.
